How the values were obtained:
Experiment in all cases: biochemical
Format in all cases: biochemical
panel of 391 kinases [1] = target: panel of 391 kinases (Homo sapiens, UniProt O00444); conditions: PLK4/SAK, MK-28 1 µM, ATP 1 µM
panel of 391 kinases [2] = target: panel of 391 kinases (Homo sapiens, UniProt O15075); conditions: DCAMKL1, MK-28 1 µM, ATP 1 µM
panel of 391 kinases [3] = target: panel of 391 kinases (Homo sapiens, UniProt O15264); conditions: P38d/MAPK13, MK-28 1 µM, ATP 1 µM
panel of 391 kinases [4] = target: panel of 391 kinases (Homo sapiens, UniProt O15530); conditions: PDK1/PDPK1, MK-28 1 µM, ATP 1 µM
panel of 391 kinases [5] = target: panel of 391 kinases (Homo sapiens, UniProt P09619); conditions: PDGFRb, MK-28 1 µM, ATP 1 µM
panel of 391 kinases [6] = target: panel of 391 kinases (Homo sapiens, UniProt P25098); conditions: GRK2, MK-28 1 µM, ATP 1 µM
panel of 391 kinases [7] = target: panel of 391 kinases (Homo sapiens, UniProt P41240); conditions: CSK, MK-28 1 µM, ATP 1 µM
panel of 391 kinases [8] = target: panel of 391 kinases (Homo sapiens, UniProt P41279); conditions: COT1/MAP3K8, MK-28 1 µM, ATP 1 µM
panel of 391 kinases [9] = target: panel of 391 kinases (Homo sapiens, UniProt P68400); conditions: CK2a, MK-28 1 µM, ATP 1 µM
panel of 391 kinases [10] = target: panel of 391 kinases (Homo sapiens, UniProt Q02156); conditions: PKCepsilon, MK-28 1 µM, ATP 1 µM
panel of 391 kinases [11] = target: panel of 391 kinases (Homo sapiens, UniProt Q06418); conditions: TYRO3/SKY, MK-28 1 µM, ATP 1 µM
panel of 391 kinases [12] = target: panel of 391 kinases (Homo sapiens, UniProt Q13464); conditions: ROCK1, MK-28 1 µM, ATP 1 µM
panel of 391 kinases [13] = target: panel of 391 kinases (Homo sapiens, UniProt Q13470); conditions: TNK1, MK-28 1 µM, ATP 1 µM
panel of 391 kinases [14] = target: panel of 391 kinases (Homo sapiens, UniProt Q13976); conditions: PKG1a, MK-28 1 µM, ATP 1 µM
panel of 391 kinases [15] = target: panel of 391 kinases (Homo sapiens, UniProt Q15831); conditions: LKB1, MK-28 1 µM, ATP 1 µM
panel of 391 kinases [16] = target: panel of 391 kinases (Homo sapiens, UniProt Q52WX2); conditions: SBK1, MK-28 1 µM, ATP 1 µM
panel of 391 kinases [17] = target: panel of 391 kinases (Homo sapiens, UniProt Q5TCY1); conditions: TTBK1, MK-28 1 µM, ATP 1 µM
panel of 391 kinases [18] = target: panel of 391 kinases (Homo sapiens, UniProt Q86SG6); conditions: NEK8, MK-28 1 µM, ATP 1 µM
panel of 391 kinases [19] = target: panel of 391 kinases (Homo sapiens, UniProt Q8IVT5); conditions: KSR1, MK-28 1 µM, ATP 1 µM
panel of 391 kinases [20] = target: panel of 391 kinases (Homo sapiens, UniProt Q8NEV4); conditions: MYO3A, MK-28 1 µM, ATP 1 µM
panel of 391 kinases [21] = target: panel of 391 kinases (Homo sapiens, UniProt Q99759); conditions: MEKK3, MK-28 1 µM, ATP 1 µM
panel of 391 kinases [22] = target: panel of 391 kinases (Homo sapiens, UniProt Q99986); conditions: VRK1, MK-28 1 µM, ATP 1 µM
panel of 391 kinases [23] = target: panel of 391 kinases (Homo sapiens, UniProt Q9BYP7); conditions: WNK3, MK-28 1 µM, ATP 1 µM
panel of 391 kinases [24] = target: panel of 391 kinases (Homo sapiens, UniProt Q9H1R3); conditions: MLCK2/MYLK2, MK-28 1 µM, ATP 1 µM
panel of 391 kinases [25] = target: panel of 391 kinases (Homo sapiens, UniProt Q9H422); conditions: HIPK3, MK-28 1 µM, ATP 1 µM
panel of 391 kinases [26] = target: panel of 391 kinases (Homo sapiens, UniProt Q9P1W9); conditions: PIM2, MK-28 1 µM, ATP 1 µM
panel of 391 kinases [27] = target: panel of 391 kinases (Homo sapiens, UniProt Q9UBS0); conditions: p70S6Kb/RPS6KB2, MK-28 1 µM, ATP 1 µM
[28] = read-out: % Enzyme Activity (relative to DMSO controls)

SMILES: CN(/N=C\c1ccc(O)c(O)c1)c1nc(-c2ccccc2)cc(-c2ccccc2)n1 [MK-28]
- % Enzyme Activity (relative to DMSO controls) (panel of 391 kinases [1]): 92.07%
- remaining activity at 1 µM (panel of 391 kinases [1]; [28]): 94.7%
- % Enzyme Activity (relative to DMSO controls) (panel of 391 kinases [2]): 110.18%
- remaining activity at 1 µM (panel of 391 kinases [2]; [28]): 111%
- % Enzyme Activity (relative to DMSO controls) (panel of 391 kinases [3]): 103.63%
- remaining activity at 1 µM (panel of 391 kinases [3]; [28]): 104%
- % Enzyme Activity (relative to DMSO controls) (panel of 391 kinases [4]): 99.62%
- remaining activity at 1 µM (panel of 391 kinases [4]; [28]): 100%
- % Enzyme Activity (relative to DMSO controls) (panel of 391 kinases [5]): 99.16%
- remaining activity at 1 µM (panel of 391 kinases [5]; [28]): 99.5%
- % Enzyme Activity (relative to DMSO controls) (panel of 391 kinases [6]): 99.37%
- remaining activity at 1 µM (panel of 391 kinases [6]; [28]): 99.8%
- % Enzyme Activity (relative to DMSO controls) (panel of 391 kinases [7]): 96.35%
- remaining activity at 1 µM (panel of 391 kinases [7]; [28]): 96.9%
- % Enzyme Activity (relative to DMSO controls) (panel of 391 kinases [8]): 95.23%
- remaining activity at 1 µM (panel of 391 kinases [8]; [28]): 96%
- % Enzyme Activity (relative to DMSO controls) (panel of 391 kinases [9]): 76.99%
- remaining activity at 1 µM (panel of 391 kinases [9]; [28]): 81.1%
- % Enzyme Activity (relative to DMSO controls) (panel of 391 kinases [10]): 100.42%
- remaining activity at 1 µM (panel of 391 kinases [10]; [28]): 102%
- % Enzyme Activity (relative to DMSO controls) (panel of 391 kinases [11]): 99.89%
- remaining activity at 1 µM (panel of 391 kinases [11]; [28]): 100%
- % Enzyme Activity (relative to DMSO controls) (panel of 391 kinases [12]): 94.86%
- remaining activity at 1 µM (panel of 391 kinases [12]; [28]): 99.6%
- % Enzyme Activity (relative to DMSO controls) (panel of 391 kinases [13]): 104.14%
- remaining activity at 1 µM (panel of 391 kinases [13]; [28]): 108%
- % Enzyme Activity (relative to DMSO controls) (panel of 391 kinases [14]): 86.31%
- remaining activity at 1 µM (panel of 391 kinases [14]; [28]): 89%
- % Enzyme Activity (relative to DMSO controls) (panel of 391 kinases [15]): 90.38%
- remaining activity at 1 µM (panel of 391 kinases [15]; [28]): 97.4%
- % Enzyme Activity (relative to DMSO controls) (panel of 391 kinases [16]): 97.75%
- remaining activity at 1 µM (panel of 391 kinases [16]; [28]): 97.8%
- % Enzyme Activity (relative to DMSO controls) (panel of 391 kinases [17]): 93.65%
- remaining activity at 1 µM (panel of 391 kinases [17]; [28]): 99%
- % Enzyme Activity (relative to DMSO controls) (panel of 391 kinases [18]): 101.46%
- remaining activity at 1 µM (panel of 391 kinases [18]; [28]): 101%
- % Enzyme Activity (relative to DMSO controls) (panel of 391 kinases [19]): 97.81%
- remaining activity at 1 µM (panel of 391 kinases [19]; [28]): 99.7%
- % Enzyme Activity (relative to DMSO controls) (panel of 391 kinases [20]): 104.11%
- remaining activity at 1 µM (panel of 391 kinases [20]; [28]): 104%
- % Enzyme Activity (relative to DMSO controls) (panel of 391 kinases [21]): 87.80%
- remaining activity at 1 µM (panel of 391 kinases [21]; [28]): 93.8%
- % Enzyme Activity (relative to DMSO controls) (panel of 391 kinases [22]): 104.86%
- remaining activity at 1 µM (panel of 391 kinases [22]; [28]): 106%
- % Enzyme Activity (relative to DMSO controls) (panel of 391 kinases [23]): 104.23%
- remaining activity at 1 µM (panel of 391 kinases [23]; [28]): 105%
- % Enzyme Activity (relative to DMSO controls) (panel of 391 kinases [24]): 95.96%
- remaining activity at 1 µM (panel of 391 kinases [24]; [28]): 96.4%
- % Enzyme Activity (relative to DMSO controls) (panel of 391 kinases [25]): 104.43%
- remaining activity at 1 µM (panel of 391 kinases [25]; [28]): 105%
- % Enzyme Activity (relative to DMSO controls) (panel of 391 kinases [26]): 99.13%
- remaining activity at 1 µM (panel of 391 kinases [26]; [28]): 102%
- % Enzyme Activity (relative to DMSO controls) (panel of 391 kinases [27]): 91.85%
- remaining activity at 1 µM (panel of 391 kinases [27]; [28]): 93.6%

Source: PMC7181660, “A novel specific PERK activator reduces toxicity and extends survival in Huntington's disease models” (Scientific Reports, 2020)
